From patent publication EP4678172A1, “USE OF NAPHTHYLAMIDE COMPOUND IN TREATMENT OF MENINGIOMA” (Shanghai Runshi Medical Technology Co., Ltd, priority 2023, dated 2024)

How the values were obtained:
[1] = test system: Human meningioma cell line IOMM-Lee cells; test: Trypan blue viable cell counting, cell viability; type: cell-based; settings: 24 h
Description: Human meningioma cell line IOMM-Lee cells (purchased from ATCC) were cultured using a DMED culture medium containing 10% FBS and 100 U/mL penicillin-streptomycin double antibiotics in an incubator with 5% CO2 at 37 °C. The cells in the logarithmic growth phase were seeded uniformly in a 6-well plate at a density of 2 × 10^5 cells/mL and cultured for 24 h, and then the cells were grouped into a blank control group and compound (I) treatment groups at different concentrations. The compound (I) treatment concentrations were 0.4 µM, 0.8 µM, 1.6 µM, 2 µM, 10 µM, 20 µM, 60 µM, and 120 µM, and 3-4 replicate wells were set for each group. After cells in the groups were separately cultured for 24 h, the cells were digested with 0.25% trypsin, and 50 µL of each cell suspension was mixed with 50 µL of 0.4% trypan blue solution to a final trypan blue concentration of 0.2%. Subsequently, 10 µL of the uniform cell suspension was added to a counting plate and counted under a microscope for the total cell count and dead cell count. Statistical analysis was performed.

[2] = test system: meningioma cells IOMM-Lee; test: EdU cell proliferation assay; type: cell-based, human; settings: 1 µM, 24 h, versus blank control group
Description: The IOMM-Lee single cell suspension in the logarithmic growth phase obtained in Example 1 was seeded in a 6-well plate at a cell density of 3 × 10^5 cells/mL, cultured overnight, and grouped into a blank control group and a compound (I) treatment group (concentration: 1 µM; treatment duration: 24 h). Subsequently, each group was incubated with EdU (10 µM) for 2 h; the culture medium was discarded; and the cells were washed with PBS (in this experiment, PBS was used in the washing process). The cells were fixed with 4% paraformaldehyde; the stationary liquid was discarded; and the cells were washed. After that, the cells were permeabilized with 0.3% Triton X100; the permeabilization liquid was discarded; and the cells were washed. Then, a prepared click reaction solution (commercially available C0081 BeyoClick™ EdU Cell Proliferation Kit with Alexa Fluor 647) was added; the mixture was incubated in the dark at room temperature for 30 min; the reaction solution was discarded; and the cells were washed. The cell nuclei were stained with Hoechst 33342 fluorescent dye by adding 1× Hoechst 33342 solution at 1 mL/well, followed by incubated in the dark at room temperature for 10 min; 1× Hoechst 33342 solution was removed by pipetting; and the cells were washed 3 times. Subsequently, a fluorescence assay was performed, and the results were recorded.

CH157-MN [3] = test: Cell scratch assay (migration); type: cell-based, human; settings: CH157-MN, 2, 5, 10 µM, 24 h, versus blank control; dose-dependent
Description: (§1) • (1) The IOMM-Lee single cell suspension in the logarithmic growth phase was seeded in a 6-well plate at a cell density of 6 × 10^5 cells/mL and cultured for 24 h to ensure the full covering of the entire cell culture dish by the growing cells. A cell scratch was made by a 10 µL sterile pipette tip perpendicular to the culture dish; the original culture solution was discarded; and the detached cells were pipetted by washing with PBS 3 times. The cells were cultured using a serum-free DMEM culture medium and grouped into a blank control group and compound (I) treatment groups at different concentrations, where the compound (I) treatment groups had concentrations of 0.5 µM, 1 µM, and 2 µM, respectively. The cells were observed under the bright field of a microscope and recorded at 0 h and 24 h. • (2) With reference to the experimental method (1), the concentrations in the compound (I) treatment groups were replaced by 2 µM, 5 µM, and 10 µM, respectively, and the used human meningioma cell line was IOMM-Lee or CH157-MN.

IOMM-Lee [4] = test: Cell scratch assay (migration); type: cell-based, human; settings: IOMM-Lee, 0.5, 1, 2 µM and 2, 5, 10 µM, 24 h, versus blank control; dose-dependent
Description: as §1

CH157-MN [5] = test: Transwell chamber assay (invasion); type: cell-based, human; settings: CH157-MN, 2, 5, 10 µM, 24 h; with increasing concentration
Description: (§2) • (1) The upper chamber of the pre-cooled Transwell chamber was coated with 50 µL of matrigel, and the matrigel-coated chamber was incubated in an incubator at 37 °C for 6-8 h to allow the matrigel to polymerize into a gel. After 100 µL of a serum-free culture medium was added to each well, the chamber was placed in an incubator for 1 h to allow the basement membrane hydration. The liquid in the upper chamber was removed, and the IOMM-Lee single cell suspension in the logarithmic growth phase was adjusted to a cell density of 2 × 10^5 cells/mL using the serum-free DMEM culture medium; 200 µL of the cell suspension was added to the Transwell chamber; and the culture liquid in the lower chamber was a DMEM culture medium with 20% FBS. Compound (I) samples at different concentrations (0 µM, 0.5 µM, 1 µM, and 2 µM, respectively) were added to the chamber. The culture was finished 24 h later; and the cells in the chamber were removed with a cotton swab, fixed with 4% paraformaldehyde for 20 min, washed with PBS 3 times, stained with crystal violet for 30 min, and observed under a microscope. The invading cells were counted. • (2) With reference to the experimental method (1), the concentrations in the compound (I) treatment groups were replaced by 2 µM, 5 µM, and 10 µM, respectively, and the used human meningioma cell line was IOMM-Lee or CH157-MN.

IOMM-Lee [6] = test: Transwell chamber assay (invasion); type: cell-based, human; settings: IOMM-Lee, 0.5, 1, 2 µM and 2, 5, 10 µM, 24 h; with increasing concentration
Description: as §2

CH157-MN [7] = test: Apoptosis by annexin V-FITC/PI flow cytometry; type: cell-based, human; settings: CH157-MN, 2, 5, 10 µM, 24 h, versus blank control
Description: (§3) • (1) The IOMM-Lee single cell suspension in the logarithmic growth phase was seeded in a 6-well plate at a cell density of 5 × 10^5 cells/mL, cultured overnight, and grouped into a blank control group and compound (I) treatment groups at different concentrations, with concentrations of compound (I) being 1 µM, 5 µM, and 10 µM, respectively, and 3-4 replicate wells were set. After the addition of compound (I) at different concentrations for the treatment for 24 h, (1-10) × 10^5 cells were collected from the blank control group and each compound (I) treatment group, washed with PBS, and centrifuged. The cells were resuspended in 500 µL of 1× binding buffer. 5 µL of annexin V-FITC and 10 µL of PI were added to each tube. After gently and homogeneously mixing by vortex, the cells were incubated in the dark at room temperature for 5 min and then subjected to flow cytometry. • (2) With reference to the experimental method (1), the concentrations in the compound (I) treatment groups were replaced by 2 µM, 5 µM, and 10 µM, respectively, and the used human meningioma cell line was IOMM-Lee or CH157-MN.

IOMM-Lee [8] = test: Apoptosis by annexin V-FITC/PI flow cytometry; type: cell-based, human; settings: IOMM-Lee, 1, 5, 10 µM and 2, 5, 10 µM, 24 h, versus blank control
Description: as §3

patients with meningioma = test: Phase I clinical trial, tumor assessment by RANO criteria for meningioma; type: in vivo, human; settings: for C2 target lesion shrinkage / target lesion shrinkage: head MRI; for target lesion shrinkage: after 6 cycles
Description: Compound (I) is currently undergoing phase I clinical trials to evaluate the preliminary efficacy on patients with meningioma.
Drug: compound (I) oral solution, 10-25 mg/day, once daily.
If no serious adverse events occurred, subsequent treatment cycles (21 days for each cycle) of administration may begin until progressive disease (PD) or intolerable toxicity occurred.
The efficacy on tumors was evaluated according to the RANO Criteria for Meningioma (Huang, Raymond Y et al. Proposed response assessment and endpoints for meningioma clinical trials: report from the Response Assessment in Neuro-Oncology Working Group. Neuro-oncology. vol. 21, 1 (2019): 26-36. doi:10.1093/neuonc/noy137). Target lesions were selected from tumor lesions with enhancement according to the criteria and precisely measured. The tumor treatment efficacy on the target lesions was confirmed by comparing the changes in the measured values. […] In addition, the improvement and deterioration of clinical symptoms of patients and the change in steroid hormone doses for symptomatic treatment of neurological symptoms were also used as evaluation indexes in tumor assessment. A tumor assessment was performed at baseline prior to the first administration and then performed once every 6 weeks during the administration until progressive disease (PD) occurred or a new anti-tumor treatment started.

[9] = Animal long-term toxicity test, conversion to human maximum tolerated dose; type: in vivo; settings: converted from animal long-term toxicity test, human body weight of 60 kg
Description: A specific dose and administration frequency can be determined by a skilled physician according to conventional skills allowing for factors such as the route of administration, the health condition of the patient, etc. In the first dose escalation study (phase I trial) in a human, the most sensitive animal species were selected to calculate the maximum recommended starting dose for clinical trials according to the pre-clinical toxicology study. The starting dose was calculated according to the calculation methods recommended by "Technical Guidelines for Non-Clinical Research on Anti-Cancer Drugs" and other guidelines. In some embodiments, in the phase 1 clinical trial of compound (I), in order to ensure the safety of subjects, in combination with the operability of clinical trials and formulation specification, the starting dose of compound (I) for the phase I clinical trial was designed to be 5 mg. Based on the results of an animal long-term toxicity test, the maximum tolerated dose for the human body is converted into 200 mg according to the human body weight of 60 kg. In the phase 1 clinical trial of compound (I), the safety, tolerance, and efficacy of the continuous administration regimen of a daily administration dose of 5 mg-200 mg were researched. […]

[10] = 34 meningioma patients, oral solution 10-25 mg/day
[11] = RANO criteria for meningioma, 34 meningioma patients, oral solution 10-25 mg/day
[12] = by Feb. 2, 2024, 32 patients completed the tumor assessment, oral solution 10-25 mg/day
[13] = by Jan. 16, 2023, 5 patients completed the tumor assessment, oral solution 10-25 mg/day
[14] = of 34 meningioma patients, oral solution 10-25 mg/day

## Cc1cc(NC(=O)c2cccc3cc(-c4cccc5[nH]nc(N)c45)ccc23)ccc1F [compound (I)]
[1]; compound (I) 0.4 µM
  viability at 0.4 µM: 71.8 ± 4.06%
[1]; compound (I) 0.8 µM
  viability at 0.8 µM: 56.8 ± 5.19%
[1]; compound (I) 1.6 µM
  viability at 1.6 µM: 48.3 ± 10.5%
[1]; compound (I) 2 µM
  viability at 2 µM: 45.3 ± 1.91%
[1]; compound (I) 10 µM
  viability at 10 µM: 35 ± 3.93%
[1]; compound (I) 20 µM
  viability at 20 µM: 22.6 ± 2.72%
[1]; compound (I) 60 µM
  viability at 60 µM: 19.3 ± 0.52%
[1]; compound (I) 80 µM
  viability at 80 µM: 6.33 ± 1.71%
[1]; compound (I) 120 µM
  viability at 120 µM: 0%
[2]
  EdU-labeled (proliferating) cells: significantly fewer than those in the blank control group
CH157-MN [3]
  cell scratch healing: significantly weaker cell scratch healing than that of the blank control group
IOMM-Lee [4]
  cell scratch healing: significantly weaker cell scratch healing than that of the blank control group
CH157-MN [5]
  invasion rates: significantly decreased
IOMM-Lee [6]
  invasion rates: significantly decreased
CH157-MN [7]
  late apoptosis: significantly increased
CH157-MN [7]; with increasing concentration
  total cell apoptosis ratio: increased
IOMM-Lee [8]
  late apoptosis: significantly increased
IOMM-Lee [8]; with increasing concentration
  total cell apoptosis ratio: increased
Patients with meningioma; [10]
  adverse events associated with the administration (severity): mostly mild and moderate
  adverse events with an incidence of greater than 20%: hypertension, decreased platelet count, increased blood lactate dehydrogenase, sinus bradycardia, proteinuria, increased aspartate aminotransferase, increased alanine aminotransferase, hypokalemia, hyperlipidemia, decreased neutrophil count, decreased leukocyte count, diarrhea, and anemia
Patients with meningioma; [11]
  disease control rate: 82.4%
  objective remission rate: 29.41%
Patients with meningioma; Typical case 1: anaplastic meningioma WHO grade III, oral solution 15 mg once daily, two cycles
  C2 target lesion shrinkage: 56%
Patients with meningioma; Typical case 1: oral solution 15 mg once daily
  adverse events during the treatment: No adverse events
Patients with meningioma; Typical case 1: oral solution 15 mg once daily, two cycles
  clinical symptoms reported by subject: significantly mitigated head-distending pain
Patients with meningioma; Typical case 2: baseline blindness in both eyes, oral solution 15 mg once daily, after two cycles
  clinical symptoms of subject: vision recovery and self-care recovery
Patients with meningioma; Typical case 2: meningioma (fibrous) WHO grade I, oral solution 15 mg once daily, two cycles
  C2 target lesion shrinkage: 36%
Patients with meningioma; Typical case 2: oral solution 15 mg once daily, recovered after administration was suspended
  main adverse event during the treatment: mild or moderate hypertension
Patients with meningioma; Typical case 3: malignant meningioma, oral solution 15 mg once daily
  C2 target lesion shrinkage: 56%
Patients with meningioma; Typical case 3: oral solution 15 mg once daily, recovered after taking a hypotensor
  main adverse event during the treatment: mild or moderate hypertension
Patients with meningioma; Typical case 4: atypical meningioma WHO grade II, oral solution 20 mg once daily
  target lesion shrinkage: 61.47%
Patients with meningioma; Typical case 4: oral solution 20 mg once daily, recovered after symptomatic treatment
  main adverse events during the treatment: mild proteinuria, decreased platelet count, decreased neutrophil count, decreased leucocyte count, and increased alanine aminotransferase
Patients with meningioma; Typical case 5: oral solution 25 mg once daily, mitigated/recovered after symptomatic treatment
  main adverse events during the treatment: mild hypertension, decreased platelet count, decreased neutrophil count, and increased alanine aminotransferase
Patients with meningioma; Typical case 5: papillary meningioma WHO grade III, oral solution 25 mg once daily
  target lesion shrinkage: 36.73%
Patients with meningioma; [12]
  MR cases: 6
  PR cases: 4
Patients with meningioma; [13]
  MR case: 1
  PR cases: 2
Patients with meningioma; [14]
  patients exhibited tumor shrinkage after administration: 26 patients
  patients exhibiting tumor shrinkage after administration, share of all patients: 76.5%
[9]
  maximum tolerated dose for the human body: 200 mg
